The values that follow come from ChEMBL document CHEMBL3108687, “Isolation and structures of pipecolidepsins A and B, cytotoxic cyclic depsipeptides from the Madagascan sponge Homophymia lamellosa” (2014).

What all share (format): functional
For test [1], the system named is HT-29. Nature of the test: Growth inhibition of human HT-29 cells after 72 hrs by sulforhodamine B assay. To be noted: HT-29, 72 h. In general terms: In SRB staining, fixed cells bind dye roughly in proportion to their protein.
Test [2] concerns A549. Nature of the test: Growth inhibition of human A549 cells after 72 hrs by sulforhodamine B assay. To be noted: A549, 72 h.
The test system of test [3] is MDA-MB-231. As to the kind of experiment: Growth inhibition of human MDA-MB-231 cells after 72 hrs by sulforhodamine B assay. To be noted: MDA-MB-231, 72 h.

On to `CCO[C@H](C(N)=O)[C@@H]1NC(=O)[C@H](CCC(N)=O)N(C)C(=O)[C@H](CC(C)C)NC(=O)[C@@H](CCCCN)NC(=O)[C@@H]([C@@H](C)O)NC(=O)[C@H](NC(=O)[C@@H](NC(=O)[C@H](O)[C@H](O)[C@H](CCC(N)=O)NC(=O)[C@@H](CC(=O)O)NC(=O)[C@H](C)[C@H](O)[C@H](C)CC(C)C)[C@@H](C)[C@@H](C)C(N)=O)[C@@H]([C@H](C)C(C)C)OC(=O)[C@@H]2CCCCN2C(=O)[C@@H](CC(=O)O)NC1=O`, for which the GI50 – broadly, the concentration that inhibits growth by half – in test [1] is 1120 nM; in test [2] it was 600 nM; in test [3], 700 nM.
In the case of `CCO[C@H](C(N)=O)[C@@H]1NC(=O)[C@H](CCC(N)=O)N(C)C(=O)[C@H](CC(C)C)NC(=O)[C@@H](CCCCN)NC(=O)[C@@H]([C@@H](C)O)NC(=O)[C@H](NC(=O)[C@@H](NC(=O)[C@H](O)[C@H](O)[C@H](CCC(N)=O)NC(=O)[C@H](NC(=O)[C@H](C)[C@H](O)[C@H](C)CC(C)C)[C@H](O)C(=O)O)[C@@H](C)[C@@H](C)C(N)=O)[C@@H]([C@H](C)C(C)C)OC(=O)[C@@H]2CCCCN2C(=O)[C@@H](CC(=O)O)NC1=O`, the figures for the GI50 in test [1], in test [2] and in test [3] were 10 nM, 40 nM and 20 nM, respectively.
